In patent US12116371B2, “Substituted pyridines as irreversible inhibitors of menin-MLL interaction” (BIOMEA FUSION, INC., priority 2018, dated 2024):
pIC50: −log10 of the molar value. Where two headings read alike, the source gives them in different places.

Experiments:
MOLM-13 cells = assay: Long term proliferation assay, Cell Titer-Glo read-out; format: cell-based, human; details: for pIC50 / IC50: Homo sapiens; for IC50: read-out: pIC50 (converted)
Experimental: (§1) Compounds of invention are tested in the 5 suspension lines by 14-day long-term proliferation assay.
(§2) The compound is tested in 10-pt dose titration (client will determine the starting concentration and the dilution scheme) and the final DMSO concentration is kept at 0.2%.
(§3) On Day 0, in a flat bottom 96-well plate, add 100 μL of cells per well at the densities optimized. Prepare compounds in DMSO at 500× final concentration. Dilute the compounds with DMSO at the dilution. Dilute the compounds in media at 3× final concentration. Add 50 μL of compound or DMSO at 3× final concentration to each well. Final volume in each well is 150 μL, and final concentration of DMSO is 0.2%. Also include 3 untreated control wells, by adding 50 μL of media alone. Incubate plates for 96 hours.
(§4) To do this take the total viable cell count calculated using step: • 1. Take the average of the replicates for each dose in order to be used in splitting the cells. • 2. Use a 96 well V-bottom plate to spin down the cells to remove old media and compound to split the cells. • 3. Based on the split ratio place the proper amount of media and cells into the V-bottom plate, and spin the plate at 1100 rpm for 5 minutes. • 4. Following the spin remove the media, careful not to disturb the cell pellet. Re-suspend pellet in 100 μL fresh media, and add to a new 96-well flat bottom plate. • 5. Add fresh compound, in the same manner as Step 3). • 6. Incubate plates for 72 hours. Repeat steps 5)-10) on Day 7. • 7. Incubate plates for 96 hours. Repeat Step 5)-10) on Day 11. • 8. Incubate 72 hours and repeat step 5) to take a final count. • 9. Data Analysis
(§5) To calculate growth for days 4, 7, 11, and 14: • 1. Calculate the split factor for day 4 to 7, day 7 to 11, and day 11-14. The split factor is the viable cells/mL on Day X (either 4, 7 or 11) divided by the density the cells are being split back to. • 2. For growth of cells from day 4 to 7, multiply the day 7 viable cells/mL density by the split factor from day 4. • 3. For growth of cells from day 7 to 11, multiply the day 11 viable cells/mL density by the days 4, and 7 split factors. • 4. For growth of cells from Day 11 to 14, multiply the Day 14 viable cells/mL density by the days 4, 7, and 11 split factors. • 5. Plot growth on semi-log chart (viable cells/mL on Y axis, in log, and days on X axis). • 6. The growth inhibition was calculated with the formula ((untreated cell numbers-treated cell numbers)/untreated cell)). • 7. Calculate the IC50 for each compound in each line using XLFit (Sigmoidal Dose-Response Model, y=(Bottom+((Top-Bottom)/(1+((IC50/×)^Hill))))).

MV4-11 cells = assay: as above; format: cell-based, human; details: for pIC50 / IC50: Homo sapiens; for IC50: read-out: pIC50 (converted)
Experimental: as §1, §2, §3, §4, §5

Panc 10.05 cells = assay: Proliferation assay, cells in adhesion; format: cell-based; details: for pIC50 / IC50: Homo sapiens
MIAPaCa-2/AMG510 cells = assay: Proliferation assay, cells in adhesion; format: cell-based; details: for pIC50 / IC50: Homo sapiens
KG-1 cells = assay: Long term proliferation assay, InCell read-out; format: cell-based; details: for pIC50 / IC50: Homo sapiens
Experimental: as §1, §2, §3, §4, §5

OCI-AML-3 cells = assay: Long term proliferation assay, InCell read-out; format: cell-based; details: for pIC50 / IC50: Homo sapiens
Experimental: as §1, §2, §3, §4, §5

MIAPaCa-2 cells = assay: Proliferation assay, cells in adhesion; format: cell-based; details: for pIC50 / IC50: Homo sapiens
NCI-H23 cells = assay: Proliferation assay, cells in adhesion; format: cell-based; details: for pIC50 / IC50: Homo sapiens

pIC50 (MOLM-13 cells; MOLM-13, 96 h, MOLM-13, Day 4, Cell Titer-Glo, read-out: Day 4 IC50): 6.30 | pIC50 (MOLM-13 cells; MOLM-13, 168 h, MOLM-13, Day 7, Cell Titer-Glo, read-out: Day 7 IC50): 6.47 | pIC50 (MOLM-13 cells; MOLM-13, 264 h, MOLM-13, Day 11, Cell Titer-Glo, read-out: Day 11 IC50): 6.46 | pIC50 (MOLM-13 cells; MOLM-13, 336 h, MOLM-13, Day 14, Cell Titer-Glo, read-out: Day 14 IC50): 6.44 | pIC50 (MOLM-13 cells; MOLM-13, MOLM-13, T4, CellTiter-Glo, read-out: IC50): 6.30 | IC50 (MOLM-13 cells; MOLM-13, MOLM-13, T4, CellTiter-Glo): 0.501 µM | pIC50 (MOLM-13 cells; MOLM-13, MOLM-13, T11, CellTiter-Glo, read-out: IC50): 6.46 | IC50 (MOLM-13 cells; MOLM-13, MOLM-13, T11, CellTiter-Glo): 0.355 µM | pIC50 (MV4-11 cells; MV4-11, 96 h, MV4-11, Day 4, Cell Titer-Glo, read-out: Day 4 IC50): 6.44 | pIC50 (MV4-11 cells; MV4-11, 168 h, MV4-11, Day 7, Cell Titer-Glo, read-out: Day 7 IC50): 6.85 | pIC50 (MV4-11 cells; MV4-11, 264 h, MV4-11, Day 11, Cell Titer-Glo, read-out: Day 11 IC50): 6.96 | pIC50 (MV4-11 cells; MV4-11, 336 h, MV4-11, Day 14, Cell Titer-Glo, read-out: Day 14 IC50): 7.05 | pIC50 (MV4-11 cells; MV4-11, MV4-11, T4, CellTiter-Glo, read-out: IC50): 6.44 | IC50 (MV4-11 cells; MV4-11, MV4-11, T4, CellTiter-Glo): 0.363 µM | pIC50 (MV4-11 cells; MV4-11, MV4-11, T11, CellTiter-Glo, read-out: IC50): 6.96 | IC50 (MV4-11 cells; MV4-11, MV4-11, T11, CellTiter-Glo): 0.115 µM | pIC50 (Panc 10.05 cells; Panc1005, Panc 10.05, T4, read-out: IC50): < 5.30 | IC50 (Panc 10.05 cells; Panc1005, Panc 10.05, T4, read-out: pIC50 (converted)): > 5.01 µM | pIC50 (Panc 10.05 cells; Panc1005, Panc 10.05, T7, read-out: IC50): < 5.30 | IC50 (Panc 10.05 cells; Panc1005, Panc 10.05, T7, read-out: pIC50 (converted)): > 5.01 µM | pIC50 (Panc 10.05 cells; Panc1005, Panc 10.05, T11, read-out: IC50): 5.38 | IC50 (Panc 10.05 cells; Panc1005, Panc 10.05, T11, read-out: pIC50 (converted)): 4.17 µM | pIC50 (MIAPaCa-2/AMG510 cells; MIA PaCa-2, MIAPaCa-2/AMG510, T4, read-out: IC50): 6.09 | IC50 (MIAPaCa-2/AMG510 cells; MIA PaCa-2, MIAPaCa-2/AMG510, T4, read-out: pIC50 (converted)): 0.813 µM | pIC50 (MIAPaCa-2/AMG510 cells; MIA PaCa-2, MIAPaCa-2/AMG510, T7, read-out: IC50): 6.46 | IC50 (MIAPaCa-2/AMG510 cells; MIA PaCa-2, MIAPaCa-2/AMG510, T7, read-out: pIC50 (converted)): 0.347 µM | pIC50 (MIAPaCa-2/AMG510 cells; MIAPaCa-2/AMG510, T11, read-out: IC50): 6.57 | IC50 (MIAPaCa-2/AMG510 cells; MIAPaCa-2/AMG510, T11, read-out: pIC50 (converted)): 0.269 µM | pIC50 (OCI-AML-3 cells; OCI-AML-3, 96 h, OCI-AML-3, Day 4, read-out: Day 4 IC50): 6.35 | pIC50 (OCI-AML-3 cells; OCI-AML-3, 264 h, OCI-AML-3, Day 11, read-out: Day 11 IC50): 6.34 | pIC50 (OCI-AML-3 cells; OCI-AML-3, OCI-AML3, T4, read-out: IC50): 6.35 | IC50 (OCI-AML-3 cells; OCI-AML-3, OCI-AML3, T4, read-out: pIC50 (converted)): 0.447 µM | pIC50 (OCI-AML-3 cells; OCI-AML-3, OCI-AML3, T11, read-out: IC50): 6.34 | IC50 (OCI-AML-3 cells; OCI-AML-3, OCI-AML3, T11, read-out: pIC50 (converted)): 0.457 µM | pIC50 (MIAPaCa-2 cells; MIA PaCa-2, MIAPaCa-2, T4, read-out: IC50): 5.83 | IC50 (MIAPaCa-2 cells; MIA PaCa-2, MIAPaCa-2, T4, read-out: pIC50 (converted)): 1.48 µM | pIC50 (MIAPaCa-2 cells; MIA PaCa-2, MIAPaCa-2, T7, read-out: IC50): 6.06 | IC50 (MIAPaCa-2 cells; MIA PaCa-2, MIAPaCa-2, T7, read-out: pIC50 (converted)): 0.871 µM | pIC50 (MIAPaCa-2 cells; MIA PaCa-2, MIAPaCa-2, T11, read-out: IC50): 6.28 | IC50 (MIAPaCa-2 cells; MIA PaCa-2, MIAPaCa-2, T11, read-out: pIC50 (converted)): 0.525 µM | pIC50 (NCI-H23 cells; NCI-H23, NCI-H23, T4, read-out: IC50): < 5.30 | IC50 (NCI-H23 cells; NCI-H23, NCI-H23, T4, read-out: pIC50 (converted)): > 5.01 µM | pIC50 (NCI-H23 cells; NCI-H23, NCI-H23, T7, read-out: IC50): < 5.30 | IC50 (NCI-H23 cells; NCI-H23, NCI-H23, T7, read-out: pIC50 (converted)): > 5.01 µM | pIC50 (NCI-H23 cells; NCI-H23, NCI-H23, T11, read-out: IC50): < 5.30 | IC50 (NCI-H23 cells; NCI-H23, NCI-H23, T11, read-out: pIC50 (converted)): > 5.01 µM
Compound: CN(C)C/C=C/C(=O)Nc1ccc(CC(=O)Nc2ccc(-c3cc4c(N5CCOCC5)ncnc4[nH]3)cc2)cc1 [Compound 5]
% max (MOLM-13 cells; MOLM-13, T4, CellTiter-Glo): 98% | % max (MOLM-13 cells; MOLM-13, T11, CellTiter-Glo): 99% | % max (MV4-11 cells; MV4-11, T4, CellTiter-Glo): 99% | % max (MV4-11 cells; MV4-11, T11, CellTiter-Glo): 99% | % max (Panc 10.05 cells; Panc 10.05, T4): <50% | % max (Panc 10.05 cells; Panc 10.05, T7): <50% | % max (Panc 10.05 cells; Panc 10.05, T11): 50% | % max (MIAPaCa-2/AMG510 cells; MIAPaCa-2/AMG510, T4): 92% | % max (MIAPaCa-2/AMG510 cells; MIAPaCa-2/AMG510, T7): 98% | % max (MIAPaCa-2/AMG510 cells; MIAPaCa-2/AMG510, T11): 99% | pIC50 (KG-1 cells; KG-1, 96 h, KG-1, Day 4, read-out: Day 4 IC50): < 5.30 | pIC50 (KG-1 cells; KG-1, 264 h, KG-1, Day 11, read-out: Day 11 IC50): < 5.35 | pIC50 (KG-1 cells; KG-1, KG-1, T4, read-out: IC50): < 5.30 | IC50 (KG-1 cells; KG-1, KG-1, T4, read-out: pIC50 (converted)): > 5.01 µM | pIC50 (KG-1 cells; KG-1, KG-1, T11, read-out: IC50): 5.35 | IC50 (KG-1 cells; KG-1, KG-1, T11, read-out: pIC50 (converted)): 4.47 µM | % max (KG-1 cells; KG-1, T4): <50% | % max (KG-1 cells; KG-1, T11): 52% | % max (OCI-AML-3 cells; OCI-AML3, T4): 100% | % max (OCI-AML-3 cells; OCI-AML3, T11): 100% | % max (MIAPaCa-2 cells; MIAPaCa-2, T4): 95% | % max (MIAPaCa-2 cells; MIAPaCa-2, T7): 98% | % max (MIAPaCa-2 cells; MIAPaCa-2, T11): 99% | % max (NCI-H23 cells; NCI-H23, T4): <50% | % max (NCI-H23 cells; NCI-H23, T7): <50% | % max (NCI-H23 cells; NCI-H23, T11): <50%
